Measured values published in US20230405136A1, “New Combinations of Boron Compounds and Adjuvants for the Treatment of Pathophysiological Conditions and Cancer and for Muscle Regeneration” (Consorcio Centro De Investigacion Biomedica En Red, M.P., priority 2020, published 2023).

What was measured:
Format in all cases: cell-based
[1] = system: human wild type (WT) cells; assay: Myotube formation (sarcomeric α-actinin immunofluorescence) in wild type muscle cells; settings: 8 days
Experimental: (§1) Briefly, the aforementioned cells (DMD, DM1 and WT) were cultured and maintained in 75 cm 2 flasks with skeletal growth medium (Promocell skeletal muscle cell basal medium supplemented with growth factors, calf serum and P/S 1%) at 37° C. in a humidified atmosphere of 5% CO2, until 80% confluence. […] After incubation with the FN coating for 1 h at RT, cells were then seeded at 40.000 cells/well (p-24 plate) in skeletal muscle cell basal medium.
(§2) For the examples where a boron compound was added, after the previous step, different amounts of the boron compound were added in the culture medium, Promocell skeletal muscle cell basal medium).
(§3) After 24 h of culture growth medium was changed by myoblast differentiation medium (DMEM high glucose/P/S 1%, insulin 10 μg/mL) and for the examples where the boron compound was added, then different amounts of boron compound were added. Differentiation medium was changed every 2 days and if necessary, the same amount of the boron compound, as previously incorporated was also added in every change. Myotube formation was evaluated after 8 days.
(§4) Cells were fixed with formalin 4% at the end of the culture for 30 minutes at 4° C. After fixing, cells were washed and conserved at 4° C. in DPBS. Starting with the fixed cells preserved at 4° C. in DPBS, samples were then rinsed with DPBS and permeabilised with DPBS/0.5% Triton X-100 at room temperature for 5 min. Samples were then incubated with sarcomeric α-actinin primary antibody (abcam, 1:200), muscle marker for immunofluorescence detection, in blocking buffer DPBS/2% BSA at 37° C. for 1 h or overnight at 4° C. The samples were then rinsed twice in DPBS/0.1% Triton X-100 and incubated with the secondary antibody anti mouse Cy3 (Invitrogen, 1:200) in blocking buffer at room temperature for 1 h. Finally, samples were washed twice in DPBS/0.1% Triton X-100 before mounting with Vectashield containing DAPI (Vector Laboratories) and observed under an epifluorescence microscope (Nikon Eclipse 80i).
(§5) Cells were cultured and maintained in 75 cm^2 flasks with skeletal growth medium (Promocell skeletal muscle cell basal medium supplemented with growth factors, calf serum and P/S 1%) at 37° C. in a humidified atmosphere of 5% CO2, until 80% confluence. […] After incubation with the FN coating for 1 h at RT, cells were then seeded at 40,000 cells/well (p-24 plate) in Promocell skeletal muscle cell basal medium. After 24 h of culture, growth medium was changed by myoblast differentiation medium (DMEM high glucose/P/S 1%, insulin 10 μg/mL) and different amounts of bortezomib 5.4 10^−6 μg (0.0000054 μg) Ex 1.1, 2.7 10^−5 μg (0.000027 μg) Ex 1.2, 5.4 10^−5 μg (0.000054 μg) Ex 1.3, and 1.1 10^−4 μg (0.00011 μg) Ex 1.4 (all non-cytotoxic concentrations) were added to each sample in the culture medium. Differentiation medium was changed every 2 days and the different amounts of bortezomib 5.4 10^−6 μg, 2.7 10^−5 μg, 5.4 10^−5 μg and 1.1 10^−4 μg, were added to each sample in every change. Myotube formation was evaluated after 8 days. Cells were fixed as described in the control samples. Afterwards, the samples were also rinsed and washed as described in the control samples. […]

[2] = system: human DM1 cells; assay: Myotube formation (sarcomeric α-actinin immunofluorescence) in DM1 muscle cells; settings: 8 days
Experimental: as §1, §2, §3, §4, §5

[3] = system: human DMD cells; assay: Myotube formation (sarcomeric α-actinin immunofluorescence) in DMD muscle cells; settings: 8 days
Experimental: as §1, §2, §3, §4, §5

[4] = system: human WT, DMD and DM1 cells; assay: Myotube formation, across WT, DMD and DM1 cells
Experimental: Briefly, the aforementioned cells (DMD, DM1 and WT) were cultured and maintained in 75 cm 2 flasks with skeletal growth medium (Promocell skeletal muscle cell basal medium supplemented with growth factors, calf serum and P/S 1%) at 37° C. in a humidified atmosphere of 5% CO2, until 80% confluence. Glass cover slip substrates (12 mm diameter) were sterilised with UV light for 30 min and then coated with 3.6 μg of fibronectin (FN). After incubation with the FN coating for 1 h at RT, cells were then seeded at 40.000 cells/well (p-24 plate) in skeletal muscle cell basal medium.
as §2, §3
Cells were fixed with formalin 4% at the end of the culture for 30 minutes at 4° C. After fixing, cells were washed and conserved at 4° C. in DPBS. Starting with the fixed cells preserved at 4° C. in DPBS, samples were then rinsed with DPBS and permeabilised with DPBS/0.5% Triton X-100 at room temperature for 5 min. Samples were then incubated with sarcomeric α-actinin primary antibody (abcam, 1:200), muscle marker for immunofluorescence detection, in blocking buffer DPBS/2% BSA at 37° C. for 1 h or overnight at 4° C. […]
Cells were cultured and maintained in 75 cm^2 flasks with skeletal growth medium (Promocell skeletal muscle cell basal medium supplemented with growth factors, calf serum and P/S 1%) at 37° C. in a humidified atmosphere of 5% CO2, until 80% confluence. […] Myotube formation was evaluated after 8 days. […]

[5] = system: human DMD cells; assay: Myotube formation (sarcomeric α-actinin immunofluorescence) in DMD muscle cells; settings: 8 days; remark: listed apart in the source
[6] = WT, without fibronectin, bortezomib 1.1 10^−4 μg
[7] = WT, without fibronectin, bortezomib 2.7 10^−5 μg
[8] = WT, without fibronectin, bortezomib 5.4 10^−5 μg
[9] = WT, without fibronectin, bortezomib 5.4 10^−6 μg
[10] = WT-FN, with fibronectin (3.6 μg coating), bortezomib 1.1 10^−4 μg
[11] = WT-FN, with fibronectin (3.6 μg coating), bortezomib 2.7 10^−5 μg
[12] = WT-FN, with fibronectin (3.6 μg coating), bortezomib 5.4 10^−5 μg
[13] = WT-FN, with fibronectin (3.6 μg coating), bortezomib 5.4 10^−6 μg
[14] = DM1, without fibronectin, bortezomib 1.1 10^−4 μg
[15] = DM1, without fibronectin, bortezomib 2.7 10^−5 μg
[16] = DM1, without fibronectin, bortezomib 5.4 10^−5 μg
[17] = DM1, without fibronectin, bortezomib 5.4 10^−6 μg
[18] = DM1-FN, with fibronectin (3.6 μg coating), bortezomib 1.1 10^−4 μg
[19] = DM1-FN, with fibronectin (3.6 μg coating), bortezomib 2.7 10^−5 μg
[20] = DM1-FN, with fibronectin (3.6 μg coating), bortezomib 5.4 10^−5 μg
[21] = DM1-FN, with fibronectin (3.6 μg coating), bortezomib 5.4 10^−6 μg
[22] = DMD, without fibronectin, bortezomib 2.7 10^−5 μg
[23] = DMD-FN, with fibronectin (3.6 μg coating), bortezomib 1.1 10^−4 μg
[24] = DMD-FN, with fibronectin (3.6 μg coating), bortezomib 2.7 10^−5 μg
[25] = DMD-FN, with fibronectin (3.6 μg coating), bortezomib 5.4 10^−5 μg
[26] = DMD-FN, with fibronectin (3.6 μg coating), bortezomib 5.4 10^−6 μg
[27] = bortezomib added in the culture medium, 8 days
[28] = DMD, without fibronectin, bortezomib 1.1 10^−4 μg
[29] = DMD, without fibronectin, bortezomib 5.4 10^−5 μg
[30] = DMD, without fibronectin, bortezomib 5.4 10^−6 μg

Structure (SMILES): CC(C)C[C@H](NC(=O)[C@H](Cc1ccccc1)NC(=O)c1cnccn1)B(O)O [bortezomib, ((R)-3-Methyl-1-((S)-3-phenyl-2-(pyrazine-2-carboxamido)propanamido)butyl)boronic acid]
- % of cell differentiation [1, 6]: 0%
- myotube diameter [1, 6]: 0 μm
- % of cell differentiation [1, 7]: 55%
- myotube diameter [1, 7]: 60 μm
- % of cell differentiation [1, 8]: 45%
- myotube diameter [1, 8]: 48 μm
- % of cell differentiation [1, 9]: 47%
- myotube diameter [1, 9]: 32 μm
- % of cell differentiation [1, 10]: 39%
- myotube diameter [1, 10]: 63 μm
- % of cell differentiation [1, 11]: 79%
- myotube diameter [1, 11]: 319 μm
- % of cell differentiation [1, 12]: 72%
- myotube diameter [1, 12]: 270 μm
- % of cell differentiation [1, 13]: 70%
- myotube diameter [1, 13]: 122 μm
- % of cell differentiation [2, 14]: 1%
- myotube diameter [2, 14]: 4 μm
- % of cell differentiation [2, 15]: 13%
- myotube diameter [2, 15]: 11 μm
- % of cell differentiation [2, 16]: 0.5%
- myotube diameter [2, 16]: 4 μm
- % of cell differentiation [2, 17]: 14%
- myotube diameter [2, 17]: 11 μm
- % of cell differentiation [2, 18]: 1%
- myotube diameter [2, 18]: 23 μm
- % of cell differentiation [2, 19]: 55%
- myotube diameter [2, 19]: 79 μm
- % of cell differentiation [2, 20]: 54%
- myotube diameter [2, 20]: 130 μm
- % of cell differentiation [2, 21]: 37%
- myotube diameter [2, 21]: 44 μm
- % of cell differentiation [3, 22]: 31%
- % of cell differentiation [3, 23]: 17%
- myotube diameter [3, 23]: 17 μm
- myotube diameter [3, 24]: 72 μm
- % of cell differentiation [3, 25]: 61%
- % of cell differentiation [3, 26]: 47%
- myotube diameter [3, 26]: 45 μm
- myotube diameter [4, 27]: importantly increased myotube diameter
- myotube differentiation [4, 27]: enhanced myotube differentiation
- myotube formation and diameter ([4]; dystrophic cells, bortezomib together with FN): restored myotube formation (fusion capability) and improved myotube diameter
- % of cell differentiation [5, 28]: 1%
- myotube diameter [5, 28]: 2 μm
- myotube diameter [5, 22]: 27 μm
- % of cell differentiation [5, 29]: 5%
- myotube diameter [5, 29]: 5 μm
- % of cell differentiation [5, 30]: 9%
- myotube diameter [5, 30]: 15 μm
- % of cell differentiation [5, 24]: 80%
- myotube diameter [5, 25]: 46 μm
